The source of these data is US9790169B2, “IDO inhibitors” (BRISTOL-MYERS SQUIBB COMPANY, priority 2015, dated 2017).

Where “and” joins values, the source holds several entries; their conditions need not be identical. Equal entries are not always repeated. A value given as a limit tells only on which side of the number the result lay.

Chain of human IDO1 (P14902 whole entry): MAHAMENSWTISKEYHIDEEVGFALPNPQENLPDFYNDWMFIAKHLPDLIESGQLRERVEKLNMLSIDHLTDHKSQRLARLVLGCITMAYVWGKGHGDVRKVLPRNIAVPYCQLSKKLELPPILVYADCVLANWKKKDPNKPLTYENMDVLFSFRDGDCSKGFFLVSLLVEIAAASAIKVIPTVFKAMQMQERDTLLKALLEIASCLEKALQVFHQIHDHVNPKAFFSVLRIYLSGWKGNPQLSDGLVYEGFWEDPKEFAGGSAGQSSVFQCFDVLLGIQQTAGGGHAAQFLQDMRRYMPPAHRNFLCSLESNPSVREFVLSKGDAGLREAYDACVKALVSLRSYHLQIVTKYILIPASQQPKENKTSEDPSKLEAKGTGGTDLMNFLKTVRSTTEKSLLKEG

This assay has as its target human IDO1 (Homo sapiens, UniProt P14902). The assay can be described thus: Assessment of human IDO-1 inhibitory activity in Hela cells (Interferon-gamma stimulated HeLa cells, Ehrlich reagent, absorbance 490 nm). It counts as cell-based. Also noted: endogenous in cells; host or cells: HeLa cells stimulated with interferon-gamma. Conditions: Hela Human IDO-1 cellular assay. Put shortly: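 IDO activity induced by 18 h IFN-γ (human 10 ng/ml or murine 5 ng/ml, final) after 1 h compound pre-treatment of HeLa cells at 37 °C. Supernatant kynurenine detected via Ehrlich reagent absorbance at 490 nm following 3% TCA at 50 °C; IC50 set against no-IFN-γ and untreated-stimulated controls.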
`CCN(c1ccc([C@@H](COC)CC(=O)O)cc1Nc1ccc(C#N)cn1)C1CCOCC1` (single isomer, unassigned) [Example 352] had an IC50 of less than 50 nM.

`COc1ccc(Nc2cc(C(CC(=O)O)C3CC3)ccc2N2C[C@@H](C)O[C@@H](C)C2)cn1` (single isomer, unassigned) [Example 246] gave an IC50 greater than 50 nM. As for `COCC(CC(=O)O)c1ccc(N2CCOC[C@@H]2C(C)C)c(Nc2ccc(Cl)cc2)c1` (single isomer, unassigned) [Example 934], the IC50 is greater than 50 nM. For `CCN(c1ccc(C2(CC(=O)O)CCOCC2)cc1NC(=O)Nc1ccc(C)cc1)C1CCOCC1` [Example 157, 2-(4-(4-(Ethyl(tetrahydro-2H-pyran-4-yl)amino)-3-(3-(p-tolyl)ureido)phenyl)tetrahydro-2H-pyran-4-yl)acetic acid] the value was greater than 50 nM; for “(R)-3-(4-((1,1-dioxidotetrahydro-2H-thiopyran-4-yl)(ethyl)amino)- 3-((2-ethoxypyrimidin-5- yl)amino)phenyl)-4- isopropoxybutanoic acid [Example 333]”, greater than 50 nM; for `CCOc1ncc(Nc2cc([C@H](CC(=O)O)C(F)(F)F)ccc2N(CC)C2CCOCC2)cn1` [Example 598, (S)-3-(3-((2-Ethoxypyrimidin-5-yl)amino)-4-(ethyl(tetrahydro-2H-pyran-4-yl)amino)phenyl)-4,4,4-trifluorobutanoic acid], less than 50 nM. Compound `CCC(CC(=O)O)c1ccc(N2CCN(C(=O)OC(C)(C)C)CC2)c(Nc2ccc(C#N)cc2)c1` (single isomer, unassigned) [Example 674 Enantiomer 1, 3-(4-(4-(tert-Butoxycarbonyl)piperazin-1-yl)-3-((4-cyanophenyl)amino)phenyl)pentanoic acid] yielded an IC50 of less than 50 nM.

`CCC1COCCN1c1ccc([C@H](COC)CC(=O)O)cc1Nc1ccc(F)cc1` (single isomer, unassigned) [Example 1309] displayed an IC50 of less than 50 nM. For `CC(C)CN(CC(C)C)c1ccc(C(C)(C)CC(=O)O)cc1Nc1ccc(Cl)cc1` [Example 145, 3-(3-((4-Chlorophenyl)amino)-4-(diisobutylamino)phenyl)-3-methylbutanoic acid] the value was less than 5 nM; for `CCN(c1cc(F)c([C@H](COC)CC(=O)O)cc1Nc1ccc(C#N)cc1)C1CCOCC1` (single isomer, unassigned) [Example 850, 3-(5-((4-Cyanophenyl)amino)-4-(ethyl(tetrahydro-2H-pyran-4-yl)amino)-2-fluorophenyl)-4-methoxybutanoic acid], less than 5 nM. For `CC[C@@H](CC(=O)O)c1ccc(N(CC)C2CCOCC2)c(Nc2cnc(C)nc2)c1` (single isomer, unassigned) [Example 1361] the value was less than 5 nM; for `CCN(c1ccc([C@@H](COC)CC(=O)O)cc1Nc1ccc(C#N)c(OCC(F)F)c1)C1CCOCC1` (single isomer, unassigned) [Example 371], less than 50 nM.

`CCN(c1ccc(C2(CC(=O)O)CCOCC2)cc1Nc1ccc(Cl)cc1)C1CCOCC1` [Example 155, 2-(4-(3-((4-chlorophenyl)amino)-4-(ethyl(tetrahydro-2H-pyran-4-yl)amino)phenyl)tetrahydro-2H-pyran-4-yl)acetic acid]: the IC50 is less than 5 nM. To `CCCN(c1ccc(C(C)(C)CC(=O)O)cc1NC(=O)Nc1ccc(C)cc1)C1CCOCC1` [Example 25, 3-Methyl-3-(4-(propyl(tetrahydro-2H-pyran-4-yl)amino)-3-(3-(p-tolyl)ureido)phenyl)butanoic acid] belongs less than 50 nM. For `CCC(CC(=O)O)c1ccc(N(CC)C2CCCOC2)c(Nc2cnc(OC)nc2)c1` (single isomer, unassigned) [Example 68, 3-(4-(ethyl(tetrahydro-2H-pyran-3-yl)amino)-3-((2-methoxypyrimidin-5-yl)amino)phenyl)pentanoic acid], the IC50 is less than 50 nM. To `CCCN(c1ccc([C@@H](COC)CC(=O)O)cc1Nc1ccc(OC)nc1)C1CCOCC1` (single isomer, unassigned) [Example 565] belongs less than 50 nM; to `CCC(CC(=O)O)c1ccc(N2CCOC(C)(C)C2)c(Nc2ccc(C#N)cc2)c1` (single isomer, unassigned) [Example 1320, 3-(3-((4-cyanophenyl)amino)-4-(2,2-dimethylmorpholino)phenyl)pentanoic acid], > 50 nM and < 50 nM. `CCCN(c1ccc([C@@H](CC)CC(=O)O)cc1NC(=O)Nc1ccc(Cl)cc1F)C1CCOCC1` (single isomer, unassigned) [Example 544]: the IC50 is less than 5 nM.

With `CCC1COCCN1c1ccc([C@@H](COC)CC(=O)O)cc1Nc1ccc(C#N)cn1` (single isomer, unassigned) [Example 1283], the IC50 was greater than 50 nM. For `CCCN(c1ccc([C@H](CC)CC(=O)O)cc1Nc1cnc(OCC2CC2)nc1)C1CCOCC1` (single isomer, unassigned) [Example 554] the value was less than 5 nM; for `COCC(CC(=O)O)c1ccc(N(C)C2CCOCC2)c(Nc2ccc(C#N)cn2)c1` (single isomer, unassigned) [Example 881, 3-(3-((5-cyanopyridin-2-yl)amino)-4-(methyl (tetrahydro-2H-pyran-4-yl)amino)phenyl)-4-methoxybutanoic acid], greater than 50 nM; for `CCN(c1ccc([C@@H](COC)CC(=O)O)cc1Nc1cccc(OC(F)(F)C(F)F)c1)C1CCOCC1` (single isomer, unassigned) [Example 360], greater than 50 nM.

With `CC[C@@H](CC(=O)O)c1ccc(N(CC2CC2)CC(C)(C)O)c(Nc2ccc(Cl)cc2)c1` (single isomer, unassigned) [Example 267], the IC50 was less than 5 nM. To `CCOc1ncc(Nc2cc(C(CC)CC(=O)O)ccc2N(CC)C2CCCOC2)cn1` (single isomer, unassigned) [Example 63, 3-(3-((2-ethoxypyrimidin-5-yl)amino)-4-(ethyl(tetrahydro-2H-pyran-3-yl)amino)phenyl)pentanoic acid] belongs less than 5 nM; to `CCOc1ncc(Nc2cc(C(COC)CC(=O)O)ccc2N2CCOC[C@@H]2C(C)C)cn1` (single isomer, unassigned) [Example 931], greater than 50 nM; to `CCOc1cnc(Nc2cc([C@@H](CC)CC(=O)O)ccc2N(CC)C2CCOCC2)cn1` (single isomer, unassigned) [Example 465], less than 5 nM. To `CCN(c1ccc([C@@H](COC)CC(=O)O)cc1Nc1ccc(C#N)c(C)n1)C1CCOCC1` (single isomer, unassigned) [Example 382] belongs less than 50 nM; to `CCCN(c1ccc([C@H](CC)CC(=O)O)cc1Nc1ccc(F)cc1)C1CCOCC1` (single isomer, unassigned) [Example 549], less than 5 nM. Compound `CCN(c1ccc([C@@H](COC)CC(=O)O)cc1Nc1ccc(C(F)(F)F)cc1)C1CCOCC1` (single isomer, unassigned) [Example 364] registered an IC50 of less than 5 nM. For `CCC(CC(=O)O)c1ccc(N2CCOC(C)(C)C2)c(Nc2ccc(Cl)cc2)c1` (single isomer, unassigned) [Example 1319 E1, 3-(3-((4-Chlorophenyl)amino)-4-(2,2-dimethylmorpholino)phenyl)pentanoic acid] the value was less than 50 nM.

The term IC50 denotes the concentration that gives 50% inhibition. A low value points to greater potency.
